No end group written: not given here. *: point of attachment. Palmitoyl = CCCCCCCCCCCCCCCC(=O)*
Tests used:
[1] = molecular target: dipeptidyl peptidase IV (Sus scrofa, UniProt P22411); assay: DPP IV degradation, % intact peptide by HPLC; type: in vitro ADME, porcine; conditions: pig, purified porcine dipeptidyl peptidase IV (DPP IV), 37° C., pH 7.8
Protocol: (§1) HPLC peak area data were used to calculate the percentage intact peptide remaining at the various time points during the incubation.

[2] = molecular target: purified porcine dipeptidyl peptidase IV (Sus scrofa, UniProt P22411); assay: DPP IV degradation, % intact peptide by HPLC; type: in vitro ADME; conditions: 37° C., pH 7.8
Protocol: as §1

[3] = system: ob/ob mice; assay: 24 hour plasma glucose and insulin profile after a single dose in non-fasted ob/ob mice; type: in vivo; conditions: single 12.5 nmol/kg i.p.
From the text: Dose of 12.5 nmol kg^−1 was chosen to evaluate the longer-term duration of action of a single dose of native or fatty acid derivatised GIP in non-fasted ob/ob mice.

[4] = system: Normal mice; assay: Intraperitoneal glucose tolerance with peptide in younger versus older normal mice; type: in vivo; conditions: 25 nmol/kg i.p. with glucose 18 mmol/kg, AUC 0-60 min
Protocol: Body weight and food intake were recorded over five days before commencement of metabolic tests. Intraperitoneal (i.p.) glucose tolerance (18 mmol/kg body weight) was assessed in non-fasted animals.

[5] = system: BRIN-BD11 cells; assay: Insulin release from BRIN-BD11 cells, GIP alone and combined with antidiabetic drugs; type: cell-based; conditions: 5.6 mM glucose, 20 minutes; for insulin secretion from BRIN-BD11 cells, agent alone: GIP 10 nM, drugs 25-200 μM; for insulin secretion, combination of agent with GIP compared with either agent alone: 10 nM GIP plus drug
Protocol: Acute insulin-release studies were carried out using clonal pancreatic BRIN-BD11 cells, whose origin, characteristics and secretory responsiveness have been outlined in detail elsewhere (Irwin, N. et al., 2005, Biol. Chem. (In Press)). BRIN-BD11 cells were seeded into 24-multiwell plates at a density of 10^5 cells per well and allowed to attach overnight at 37° C.

[6] = system: ob/ob mice; assay: Acute glucose lowering and insulin release, peptide given i.p. with glucose to 18 hour fasted ob/ob mice; conditions: 25 nmol/kg i.p. with glucose 18 mmol/kg
Protocol: Obese diabetic (ob/ob) mice derived from the colony maintained at Aston University, UK (23) were used at 12-16 weeks of age. […] Drinking water and standard rodent maintenance diet (Trouw Nutrition, Cheshire, UK) were freely available.
Food intake and body weight were recorded daily from 5 days before commencement of the treatment regimes. Plasma glucose and insulin concentrations (10:00 h) were monitored at 2-4 day intervals. […] All acute tests were commenced at 10:00 h. […] Serum samples were taken for determination of glucagon concentrations. All other blood samples were collected from the cut tip of the tail vein of conscious mice into chilled fluoride/heparin coated glucose microcentrifuge tubes (Sarstedt, Nümbrecht, Germany) at the times indicated in the Figures. Blood samples were immediately centrifuged using a Beckman microcentrifuge (Beckman Instruments, Galway, Ireland) for 30 seconds at 13,000×g. The resulting plasma was then aliquoted into fresh tubes and stored at −20° C. prior to glucose and insulin determinations.

[7] = system: ob/ob mice; assay: Daily N-AcGIP(PEG) for 14 days in 12 weeks old ob/ob mice; type: in vivo
Protocol: FIG. 27 is a pair of line graphs showing the effects of daily N-AcGIP(PEG) administration on food intake and body weight. N-AcGIP(PEG) (25 nmoles/kg/day) or saline vehicle (control) were administered for the 14-day period. Values are mean±SEM for 8 mice.
FIG. 28 is a pair of line graphs showing changes of plasma glucose and insulin after daily treatment of ob/ob mice with N-AcGIP(PEG) (25 nmoles/kg/day) or saline vehicle (control) for 14 days. Values are mean±SEM for 8 mice.
FIG. 29 is a set of line graphs showing the effects of daily N-AcGIP(PEG) administration on glucose tolerance and plasma insulin response to glucose. Tests were conducted after 14 daily injections of either N-AcGIP(PEG) ([…]) or saline vehicle (control). Glucose (18 mmoles/kg) was administered by intraperitoneal injection. Plasma glucose and insulin AUC values for 0-60 min post injection are shown in the right panels. Values are mean±SEM for 8 mice. *p<0.05 compared to control.
FIG. 30 is a line graph and a bar graph showing the effects of daily N-AcGIP(PEG) administration on insulin sensitivity. Tests were conducted after 14 daily injections of either N-AcGIP(PEG) (25 nmoles/kg/day) or saline vehicle (control). Insulin (50 U/kg) was administered by intraperitoneal injection. Plasma glucose AUC values from baseline for 0-60 min post injection are shown in the right panels. Values are mean±SEM for 8 mice. *p<0.05 compared to control.

[8] = system: dipeptidyl peptidase IV (DPP IV; EC 3.4.15.5); assay: in the circulation; conditions: cited from earlier work
[9] = system: dipeptidyl peptidase IV; assay: purified porcine dipeptidyl peptidase IV (5 mU) in 50 mM triethanolamine-HCl (pH 7.8); conditions: 37° C., up to 24 hours
[10] = molecular target: purified porcine dipeptidyl peptidase IV (porcine, UniProt P22411 38-766, limits assumed); assay: cell-based or functional assay
[11] = after 14 days, glucose 18 mmol/kg i.p.

Chain of purified porcine dipeptidyl peptidase IV (Sus scrofa, UniProt P22411) (P22411 whole entry): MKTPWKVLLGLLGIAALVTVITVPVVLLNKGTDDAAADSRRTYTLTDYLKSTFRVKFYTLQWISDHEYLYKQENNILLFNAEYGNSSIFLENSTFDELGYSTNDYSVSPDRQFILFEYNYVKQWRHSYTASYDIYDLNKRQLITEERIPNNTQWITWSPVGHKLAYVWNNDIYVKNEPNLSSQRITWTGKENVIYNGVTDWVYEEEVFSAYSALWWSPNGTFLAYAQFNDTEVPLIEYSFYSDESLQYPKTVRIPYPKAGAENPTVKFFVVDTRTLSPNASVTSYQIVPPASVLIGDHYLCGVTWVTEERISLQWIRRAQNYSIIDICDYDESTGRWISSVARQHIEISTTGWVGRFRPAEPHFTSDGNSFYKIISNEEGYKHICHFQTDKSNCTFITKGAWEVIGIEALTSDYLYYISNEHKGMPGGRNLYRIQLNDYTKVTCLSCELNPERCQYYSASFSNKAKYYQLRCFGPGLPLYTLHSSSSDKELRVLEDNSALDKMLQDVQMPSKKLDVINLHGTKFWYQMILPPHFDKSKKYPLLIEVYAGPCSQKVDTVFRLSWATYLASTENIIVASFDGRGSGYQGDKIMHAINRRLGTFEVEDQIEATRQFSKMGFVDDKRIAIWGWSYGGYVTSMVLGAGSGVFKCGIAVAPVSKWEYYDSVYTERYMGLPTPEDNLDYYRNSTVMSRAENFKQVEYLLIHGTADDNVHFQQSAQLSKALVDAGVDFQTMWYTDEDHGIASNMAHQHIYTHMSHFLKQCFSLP
Chain of dipeptidyl peptidase IV (Sus scrofa, UniProt P22411) (P22411 whole entry): as above
Chain of purified porcine dipeptidyl peptidase IV (porcine, UniProt P22411 38-766, limits assumed) (P22411 38-766 limits assumed): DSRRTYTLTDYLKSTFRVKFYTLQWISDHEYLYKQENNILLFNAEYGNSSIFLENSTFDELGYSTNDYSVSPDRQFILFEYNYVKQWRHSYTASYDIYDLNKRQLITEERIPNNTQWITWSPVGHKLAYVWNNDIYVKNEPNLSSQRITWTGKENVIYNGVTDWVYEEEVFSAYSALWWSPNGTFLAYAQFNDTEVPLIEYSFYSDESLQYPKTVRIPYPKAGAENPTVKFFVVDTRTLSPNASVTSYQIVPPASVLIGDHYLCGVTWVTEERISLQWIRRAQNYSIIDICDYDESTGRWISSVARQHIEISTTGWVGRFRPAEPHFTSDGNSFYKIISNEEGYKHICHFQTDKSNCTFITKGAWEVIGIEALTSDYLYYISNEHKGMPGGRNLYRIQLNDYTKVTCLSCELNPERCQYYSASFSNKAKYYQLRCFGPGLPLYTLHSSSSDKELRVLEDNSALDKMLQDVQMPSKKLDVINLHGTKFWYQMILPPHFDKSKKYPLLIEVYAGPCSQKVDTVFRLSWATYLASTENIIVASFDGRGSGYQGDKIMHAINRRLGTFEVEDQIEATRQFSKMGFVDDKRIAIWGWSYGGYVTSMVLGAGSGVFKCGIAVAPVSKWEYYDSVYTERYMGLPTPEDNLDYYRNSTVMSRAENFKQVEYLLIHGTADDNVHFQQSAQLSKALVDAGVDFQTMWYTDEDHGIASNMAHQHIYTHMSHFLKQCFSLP

CC[C@H](C)[C@H](NC(=O)[C@H](CO)NC(=O)[C@H](Cc1ccc(O)cc1)NC(=O)[C@H](CC(=O)O)NC(=O)[C@H](CO)NC(=O)[C@@H](NC(=O)[C@H](Cc1ccccc1)NC(=O)[C@@H](NC(=O)CNC(=O)[C@H](CCC(=O)O)NC(=O)[C@H](C)NC(=O)[C@@H](N)Cc1ccc(O)cc1)[C@@H](C)O)[C@@H](C)CC)C(=O)N[C@@H](C)C(=O)N[C@@H](CCSC)C(=O)N[C@@H](CC(=O)O)C(=O)N[C@@H](CCCCN)C(=O)N[C@H](C(=O)N[C@@H](Cc1c[nH]cn1)C(=O)N[C@@H](CCC(N)=O)C(=O)N[C@@H](CCC(N)=O)C(=O)N[C@@H](CC(=O)O)C(=O)N[C@@H](Cc1ccccc1)C(=O)N[C@H](C(=O)N[C@@H](CC(N)=O)C(=O)N[C@@H](Cc1c[nH]c2ccccc12)C(=O)N[C@@H](CC(C)C)C(=O)N[C@@H](CC(C)C)C(=O)N[C@@H](C)C(=O)N[C@@H](CCC(N)=O)C(=O)N[C@@H](CCCCN)C(=O)NCC(=O)N[C@@H](CCCCN)C(=O)N[C@@H](CCCCN)C(=O)N[C@@H](CC(N)=O)C(=O)N[C@@H](CC(=O)O)C(=O)N[C@@H](Cc1c[nH]c2ccccc12)C(=O)N[C@@H](CCCCN)C(=O)N[C@@H](Cc1c[nH]cn1)C(=O)N[C@@H](CC(N)=O)C(=O)N[C@H](C(=O)N[C@H](C(=O)N[C@@H](CCC(N)=O)C(=O)O)[C@@H](C)O)[C@@H](C)CC)C(C)C)[C@@H](C)CC [Native GIP, reference compound]
remaining at 2 h, 2 mM ([1]; 2 h incubation with DPP IV (5 mU), read-out: % Intact peptide remaining after time (h) 2): 52 ± 3%
remaining at 8 h, 2 mM ([1]; 8 h incubation with DPP IV (5 mU), read-out: % Intact peptide remaining after time (h) 8): 0%
remaining at 24 h, 2 mM ([1]; 24 h incubation with DPP IV (5 mU), read-out: % Intact peptide remaining after time (h) 24): 0%
% Intact peptide remaining after time (h) 0 ([2]; 0 h incubation with DPP IV (5 mU)): 100%
% Intact peptide remaining after time (h) 2 ([2]; 2 h incubation with DPP IV (5 mU)): 52±3%
% Intact peptide remaining after time (h) 8 ([2]; 8 h incubation with DPP IV (5 mU)): completely degraded
effect on plasma glucose over 24 hours [3]: transient, but not significant effect
overall plasma glucose response in older mice compared to younger controls [4]: significantly elevated
overall plasma insulin response in older mice compared to younger controls [4]: significantly less
insulin secretion from BRIN-BD11 cells, agent alone [5]: stimulated insulin secretion
insulin release compared to glucose alone [6]: significantly greater
plasma glucose concentrations and AUC (0-60 min) compared to glucose alone [6]: neither this nor the overall AUC glucose excursion achieved significance

COc1ccc(Cl)cc1C(=O)NCCc1ccc(S(=O)(=O)NC(=O)NC2CCCCC2)cc1 [glibenclamide]
insulin secretion, combination of agent with GIP compared with either agent alone [5]: significant potentiation
insulin secretion from BRIN-BD11 cells, agent alone [5]: stimulated insulin secretion

CC(C)[C@H]1CC[C@H](C(=O)N[C@H](Cc2ccccc2)C(=O)O)CC1 [nateglinide]
insulin secretion, combination of agent with GIP compared with either agent alone [5]: significant potentiation
insulin secretion from BRIN-BD11 cells, agent alone [5]: stimulated insulin secretion

CCCCNC(=O)NS(=O)(=O)c1ccc(C)cc1 [tolbutamide]
insulin secretion, combination of agent with GIP compared with either agent alone [5]: significant potentiation
insulin secretion from BRIN-BD11 cells, agent alone [5]: stimulated insulin secretion

N-AcGIP(PEG): GIP molecule in which PEG is attached to the C-terminus and the Acetyl group to the opposite end
circulating insulin ([7]; 25 nmoles/kg/day, 14 days): without appreciable change
effect on body weight ([7]; 25 nmoles/kg/day, 14 days): did not affect
effect on food intake ([7]; 25 nmoles/kg/day, 14 days): did not affect
non-fasting glucose ([7]; 25 nmoles/kg/day, 14 days): decreased
glucose tolerance after intraperitoneal glucose load [7, 11]: improved glucose tolerance
overall glycaemic response after intraperitoneal glucose load [7, 11]: reduced the overall glycaemic response
plasma insulin concentrations and insulin response to intraperitoneal glucose [7, 11]: enhanced
plasma glucose after administration of insulin (insulin sensitivity) ([7]; after 14 days, insulin 50 U/kg i.p.): lower plasma glucose concentrations

yaegtfisdysiamdkihqqdfvnwllaqkgkkndwkhnitq
fragment found [8]: GIP(3-42), major
fragment found [9]: GIP(3-42), major, 2 hours

YAEGTFISDYSIAMDKIHQQDFVNWLLAQKGKKNDWK(Palmitoyl)HNITQ [GIP(LysPAL^37)]
% Intact peptide remaining after time (h): 0 [10]: 100%
% Intact peptide remaining after time (h): 2 [10]: 100%
% Intact peptide remaining after time (h): 8 [10]: 100%
% Intact peptide remaining after time (h): 24 [10]: 100%

YAEGTFISDYSIAMDKIHQQDFVNWLLAQKGKKNDWKHNITQ (C-16 palmitoyl group on the epsilon amino group of Lys 16) [GIP(LysPAL^16)]
% Intact peptide remaining after time (h): 0 [10]: 100%
% Intact peptide remaining after time (h): 2 [10]: 100%
% Intact peptide remaining after time (h): 8 [10]: 100%
% Intact peptide remaining after time (h): 24 [10]: 100%

YAEGTFISDYSIAMDKIHQQDFVNWLLAQKGKKNDWKHNITQ [native GIP (glucose-dependent insulinotropic polypeptide; gastric inhibitory polypeptide), GIP(1-42)]
% Intact peptide remaining after time (h): 0 [10]: 100%
% Intact peptide remaining after time (h): 2 [10]: 52%
% Intact peptide remaining after time (h): 8 [10]: 0%
% Intact peptide remaining after time (h): 24 [10]: 0%
